Marks after values point to notes of the source that are not given here.
T1: CXCR2 (Homo sapiens, UniProt P25025)
T1 construct: Eurofins Cerep (external service)
T1 sequence (P25025 1-360): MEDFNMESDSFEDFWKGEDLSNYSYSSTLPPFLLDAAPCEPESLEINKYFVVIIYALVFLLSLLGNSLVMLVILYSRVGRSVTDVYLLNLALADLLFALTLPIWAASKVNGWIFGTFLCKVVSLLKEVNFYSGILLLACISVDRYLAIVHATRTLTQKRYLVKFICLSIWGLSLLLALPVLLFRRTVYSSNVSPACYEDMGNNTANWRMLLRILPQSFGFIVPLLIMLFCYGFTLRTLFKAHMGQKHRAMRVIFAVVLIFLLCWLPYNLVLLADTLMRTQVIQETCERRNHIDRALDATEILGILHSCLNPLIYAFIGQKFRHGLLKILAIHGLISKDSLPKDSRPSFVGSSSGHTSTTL

T2: M5 (Homo sapiens, UniProt P08912)
T2 construct: Eurofins Cerep (external service)
T2 sequence (P08912 1-532): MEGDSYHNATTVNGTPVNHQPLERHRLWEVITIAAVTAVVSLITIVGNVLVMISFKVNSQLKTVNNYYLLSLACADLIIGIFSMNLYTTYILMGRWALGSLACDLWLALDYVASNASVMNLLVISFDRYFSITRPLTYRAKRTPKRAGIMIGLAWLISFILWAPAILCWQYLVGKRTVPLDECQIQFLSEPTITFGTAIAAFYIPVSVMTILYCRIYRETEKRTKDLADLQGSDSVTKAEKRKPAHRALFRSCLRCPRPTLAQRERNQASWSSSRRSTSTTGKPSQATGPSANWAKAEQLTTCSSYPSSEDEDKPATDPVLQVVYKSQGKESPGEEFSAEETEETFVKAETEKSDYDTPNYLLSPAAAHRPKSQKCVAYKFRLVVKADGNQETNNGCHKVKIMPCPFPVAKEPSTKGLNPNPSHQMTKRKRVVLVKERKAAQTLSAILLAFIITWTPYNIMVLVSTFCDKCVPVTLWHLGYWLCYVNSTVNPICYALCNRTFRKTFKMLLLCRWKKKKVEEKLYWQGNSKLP

T3: CCR3 (Homo sapiens, UniProt P51677)
T3 sequence (P51677 1-355): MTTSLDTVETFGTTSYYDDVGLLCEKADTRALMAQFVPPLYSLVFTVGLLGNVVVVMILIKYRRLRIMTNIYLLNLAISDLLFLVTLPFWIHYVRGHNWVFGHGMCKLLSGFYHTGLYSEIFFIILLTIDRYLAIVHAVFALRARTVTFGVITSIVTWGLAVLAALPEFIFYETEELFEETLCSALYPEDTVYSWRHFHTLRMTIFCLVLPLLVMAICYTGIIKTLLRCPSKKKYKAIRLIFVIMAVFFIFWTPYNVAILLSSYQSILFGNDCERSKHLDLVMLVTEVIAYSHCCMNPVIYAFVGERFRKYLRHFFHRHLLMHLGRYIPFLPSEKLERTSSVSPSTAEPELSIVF

T4: CX3CR1 (Homo sapiens, UniProt P49238)
T4 sequence (P49238 1-355): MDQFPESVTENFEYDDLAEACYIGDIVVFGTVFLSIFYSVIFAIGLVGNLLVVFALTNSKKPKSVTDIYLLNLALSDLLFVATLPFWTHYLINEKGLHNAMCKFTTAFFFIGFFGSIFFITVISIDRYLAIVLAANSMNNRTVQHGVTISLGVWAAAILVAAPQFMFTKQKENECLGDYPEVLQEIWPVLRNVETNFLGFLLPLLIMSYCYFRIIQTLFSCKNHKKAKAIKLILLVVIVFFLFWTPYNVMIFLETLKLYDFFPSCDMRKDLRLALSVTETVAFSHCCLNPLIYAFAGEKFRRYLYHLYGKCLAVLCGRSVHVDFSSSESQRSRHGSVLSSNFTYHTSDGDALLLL

B1: CX3CL1: chemokine, reference agonist for CX3CR1 (protein, UniProt P78423 25-397, looked up)
Fractalkine: QHHGVTKCNITCSKMTSKIPVALLIHYQQNQASCGKRAIILETRQHRLFCADPKEQWVKDAMQHLDRQAAALTRNGGTFEKQIGEVKPRTTPAAGGMDESVVLEPEATGESSSLEPTPSSQEAQRALGTSPELPTGVTGSSGTRLPPTPKAQDGGPVGTELFRVPPVSTAATWQSSAPHQPGPSLWAEAKTSEAPSTQDPSTQASTASSPAPEENAPSEGQRVWGQGQSPRPENSLEREEMGPVPAHTDAFQDWGPGSMAHVSVVPVSSEGTPSREPVASGSWTPKAEEPIHATMDPQRLGVLITPVPDAQAATRRQAVGLLAFLGLLFCLGVAMFTYQSLQGCPRKMAGEMAEGLRYIPRSCGSNSYVLVPV
B2: eotaxin 2: chemokine, reference agonist for CCR3 (protein, UniProt O00175 27-119, looked up)
C-C motif chemokine 24: VVIPSPCCMFFVSKRIPENRVVSYQLSSRSTCLKAGVIFTTKKGQQFCGDPKQEWVQRYMKNLDAKQKKASPRARAVAVKGPVQRYPGNQTTC

Legend:
[1] = molecular target: T5, mGluR5 (Homo sapiens, UniProt P41594); test: Binding assay mGluR5; conditions: reference compound
T5 construct: Eurofins Cerep (external service)
T5 sequence (P41594 21-1212): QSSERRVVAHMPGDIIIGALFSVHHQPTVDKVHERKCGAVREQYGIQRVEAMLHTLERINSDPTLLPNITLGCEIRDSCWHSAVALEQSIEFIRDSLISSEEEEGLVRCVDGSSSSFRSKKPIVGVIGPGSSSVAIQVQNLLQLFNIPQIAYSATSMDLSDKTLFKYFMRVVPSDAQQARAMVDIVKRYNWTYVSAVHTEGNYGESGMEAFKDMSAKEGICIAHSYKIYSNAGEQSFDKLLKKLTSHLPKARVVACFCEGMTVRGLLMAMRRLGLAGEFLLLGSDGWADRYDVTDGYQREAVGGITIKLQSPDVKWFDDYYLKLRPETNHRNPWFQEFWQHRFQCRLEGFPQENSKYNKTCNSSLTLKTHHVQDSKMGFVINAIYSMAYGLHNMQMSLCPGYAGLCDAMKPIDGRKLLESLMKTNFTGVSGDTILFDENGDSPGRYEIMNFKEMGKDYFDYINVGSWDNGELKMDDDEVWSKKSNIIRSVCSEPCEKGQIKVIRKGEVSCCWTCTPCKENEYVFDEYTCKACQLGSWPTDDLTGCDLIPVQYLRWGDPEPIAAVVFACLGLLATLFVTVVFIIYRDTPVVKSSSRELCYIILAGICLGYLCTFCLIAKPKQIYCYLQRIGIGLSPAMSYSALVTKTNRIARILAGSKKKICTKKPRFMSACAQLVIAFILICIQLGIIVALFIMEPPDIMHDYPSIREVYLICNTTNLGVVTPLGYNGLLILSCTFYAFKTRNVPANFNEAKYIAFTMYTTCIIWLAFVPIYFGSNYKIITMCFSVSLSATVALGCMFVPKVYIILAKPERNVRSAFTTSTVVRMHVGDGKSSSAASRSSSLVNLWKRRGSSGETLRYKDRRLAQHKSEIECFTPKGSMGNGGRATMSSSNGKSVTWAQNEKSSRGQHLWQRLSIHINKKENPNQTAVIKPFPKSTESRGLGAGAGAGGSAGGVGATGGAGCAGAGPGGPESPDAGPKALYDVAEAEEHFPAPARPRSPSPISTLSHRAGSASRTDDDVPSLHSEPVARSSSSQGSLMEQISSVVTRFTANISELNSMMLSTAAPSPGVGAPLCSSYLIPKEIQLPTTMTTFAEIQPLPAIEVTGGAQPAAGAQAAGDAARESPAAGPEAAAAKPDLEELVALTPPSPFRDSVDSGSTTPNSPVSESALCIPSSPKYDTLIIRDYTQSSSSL

[2] = molecular target: T6, human GPR17 (Homo sapiens, UniProt Q13304); test: [35S]GTPγS binding assay; format: biochemical; conditions: for EC50: membranes of 1321N1 cells transfected with human GPR17, mean ± SEM of 3 experiments
T6 construct: HA; expressed in transfected cells
T6 sequence (Q13304 29-367): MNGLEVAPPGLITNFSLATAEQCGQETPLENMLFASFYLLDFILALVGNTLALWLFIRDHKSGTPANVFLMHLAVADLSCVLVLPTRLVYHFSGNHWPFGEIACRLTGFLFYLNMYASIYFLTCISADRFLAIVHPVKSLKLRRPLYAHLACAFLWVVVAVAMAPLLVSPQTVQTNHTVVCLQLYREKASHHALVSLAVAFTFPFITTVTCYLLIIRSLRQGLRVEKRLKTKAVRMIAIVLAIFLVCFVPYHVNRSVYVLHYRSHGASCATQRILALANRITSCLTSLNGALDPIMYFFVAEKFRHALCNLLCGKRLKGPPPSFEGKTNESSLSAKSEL
Method: [^35S]GTPγS binding assays were carried out as previously described. Briefly, control and astrocytoma 1321N1 cells stably transfected with human pcDNA3.1 (control cells) and human HA-tag GPR17 were homogenized in 5 mM Tris/HCl and 2 mM EDTA (pH 7.4) and centrifuged at 48,000g for 15 min at 4°C. The resulting pellets were washed in 50 mM Tris/HCl and 10 mM MgCl2 (pH 7.4). After protein dosage, aliquots of cell membranes were incubated with increasing concentrations of each investigated ligand (1 pM–10 μM) and GTPγS binding to activated G-proteins was quantified as previously described. Compounds were purchased from two external providers, i.e., Ambinter (Ambinter c/o Greenpharma, Orléans, France http://www.ambinter.com/) and Asinex (http://www.asinex.com/).
For analysis and graphic presentation of [^35S]GTPγS binding data, a nonlinear multipurpose curve fitting computer program (Graph-Pad Prism) was used. All data are presented as the mean ± SEM of three different experiments.
The selected 15 molecules were evaluated in our in-house [^35S]GTPγS functional assay in membranes from cells transfected with human GPR17. […] Moreover, this assay has been already successfully used in the past to measure the ability of both endogenous and novel synthetic compounds to activate GPR17 [25, 31]. All tested molecules were able to potently activate GPR17 with nanomolar/sub-nanomolar affinities. Concentration-response curves obtained for each selected compound are reported in S4 Fig.

[3] = molecular target: T1, CXCR2; test: Binding assay CXCR2; conditions: reference compound
[4] = molecular target: T2, M5; test: Binding assay M5; conditions: reference compound
[5] = molecular target: P2Y; test: Binding assay P2Y; set-up: species or system human; conditions: reference compound
[6] = molecular target: T7, CCR2 (Homo sapiens, UniProt P41597); test: Binding assay CCR2; conditions: reference compound
T7 construct: Eurofins Cerep (external service)
T7 sequence (P41597 whole entry): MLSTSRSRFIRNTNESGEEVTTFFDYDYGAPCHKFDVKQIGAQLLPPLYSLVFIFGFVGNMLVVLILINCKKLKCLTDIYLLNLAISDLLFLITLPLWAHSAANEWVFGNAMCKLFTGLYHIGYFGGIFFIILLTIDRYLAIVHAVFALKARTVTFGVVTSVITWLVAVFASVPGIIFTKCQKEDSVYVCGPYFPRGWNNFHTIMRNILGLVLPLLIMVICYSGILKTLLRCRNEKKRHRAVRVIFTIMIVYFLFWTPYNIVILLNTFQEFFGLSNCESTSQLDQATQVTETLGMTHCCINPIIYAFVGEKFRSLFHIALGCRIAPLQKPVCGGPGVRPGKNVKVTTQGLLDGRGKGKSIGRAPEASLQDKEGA

[7] = molecular target: T3, CCR3; test: Cellular functional assay CCR3
[8] = molecular target: T4, CX3CR1; test: Cellular functional assay CX3CR1; conditions: reference agonist
[9] = standard LTC4 50 nM set to 100% (¶ compounds)
[10] = standard LTD4 50 nM set to 100% († compounds)

Row | Molecule | EC50 [2] [nM] | % Emax (ratio vs Emax of the standard) [2, 9] | Emax (% vs basal) ([2]; mean ± SEM) [%] | also measured
1 | N[C@@H](Cn1oc(=O)[nH]c1=O)C(=O)O [L-Quisqualate, reference compound] | – | – | – | IC50 [1]: 67 nM; Ki [1]: 14 nM
2 | COc1ccc(-c2nnc(SCC(=O)Nc3ncc(Cc4ccc(Cl)cc4)s3)n2-c2ccccc2)cc1OC [Compound 14] | 2.7 ± 0.4 | 98.8% | 139.3 ± 2.5 | –
3 | Cc1nc2ccc(NC(=O)CSc3nnc(-c4ccccc4)[nH]3)cc2[nH]1 [Compound 8] | 0.24 ± 0.02 | – | 144.8 ± 6.4 | % Emax (ratio vs Emax of the standard) [2, 10]: 100.3%
4 | CCOc1ccc(-n2c(SCC(=O)Nc3ccc(Cl)c(C(F)(F)F)c3)nnc2-c2cccc(C)c2)cc1 [Compound 12] | 7.11 ± 1.96 | 90.6 ^* % | 127.7 ± 4.1 | –
5 | COc1ccccc1-c1nnc(SCC(=O)Nc2nccs2)[nH]1 [Compound 17] | 8.48 ± 0.9 | 96.6% | 136.2 ± 0.5 | –
6 | Cc1cccc(-c2n[nH]c(SCC(=O)Nc3cccc4ccccc34)n2)c1 [Compound 7] | 0.48 ± 0.09 | – | 151.3 ± 6.7 | % Emax (ratio vs Emax of the standard) [2, 10]: 104.8%
7 | CCOc1ccc(-n2c(SCC(=O)Nc3ccc4c(c3)OCCO4)nnc2-c2ccccc2Cl)cc1 [Compound 13] | 3.29 ± 0.28 | 100.2% | 141.3 ± 7.6 | –
8 | IL-8: chemokine, reference compound for CXCR2 binding | – | – | – | IC50 [3]: 0.26 nM; Ki [3]: 0.12 nM
9 | CCCCC/C=C\C\C=C/C=C/C=C/[C@@H](SC[C@H](N)C(=O)NCC(=O)O)[C@@H](O)CCCC(=O)O [LTD4, reference compound] | – | – | – | Emax (% vs basal) ([2]; reference agonist at 50 nM): 144.4 ± 7.1%
10 | Cc1cccc(-c2n[nH]c(SCC(=O)Nc3ccccc3)n2)c1 [Compound 10] | 0.24 ± 0.06 | – | 142.0 ± 5.8 | % Emax (ratio vs Emax of the standard) [2, 10]: 98.3%
11 | C[N+]1(C)CCC(OC(=O)C(c2ccccc2)c2ccccc2)CC1 [Compound 4-DAMP, 4-DAMP, reference compound] | – | – | – | IC50 [4]: 0.73 nM; Ki [4]: 0.37 nM
12 | CCCCC/C=C\C\C=C/C=C/C=C/[C@@H](SC[C@H](NC(=O)CC[C@H](N)C(=O)O)C(=O)NCC(=O)O)[C@@H](O)CCCC(=O)O [LTC4, reference compound] | – | – | – | Emax (% vs basal) ([2]; reference agonist at 50 nM): 141.0 ± 3.9%
13 | COc1ccccc1-c1nnc(SCC(=O)Nc2ncc3c(n2)CCCC3=O)[nH]1 [Compound 15] | 2.9 ± 0.1 | 97.23% | 137.1 ± 1.3 | –
14 | dATPS [reference compound] | – | – | – | IC50 [5]: 51 nM; Ki [5]: 25 nM
15 | Cn1c(SCC(=O)Nc2ccc(Cl)cc2)nnc1-c1ccc(NC(=O)c2ccccc2)cc1 [Compound 4] | 0.43 ± 0.08 | – | 160.0 ± 10.6 | % Emax (ratio vs Emax of the standard) [2, 10]: 110.8%
16 | MCP-1: chemokine, reference compound for CCR2 binding | – | – | – | IC50 [6]: 0.072 nM; Ki [6]: 0.029 nM
17 | COc1ccc(-n2c(SCC(=O)Nc3cc(C(C)(C)C)no3)nnc2-c2ccccc2OC)cc1 [Compound 11] | 22.5 ± 4.3 | 95.3% | 134.3 ± 8.8 | –
18 | CCc1ccccc1-n1c(SCC(=O)Nc2ccccc2Cl)nnc1-c1ccccc1O [Compound 6] | 0.52 ± 0.09 | – | 135.0 ± 10.2 | % Emax (ratio vs Emax of the standard) [2, 10]: 93.5 ^* %
19 | COc1ccccc1-c1nnc(SCC(=O)Nc2ncc3c(n2)CC(C)(C)CC3=O)[nH]1 [Compound 16] | 3.45 ± 0.5 | 99.0% | 139.6 ± 1.5 | –
20 | CC[N+]1(C/C2=C/CCCCCC2)CCC(NC(=O)C2c3cc(Cl)ccc3Oc3ccc(Cl)cc32)CC1 (stereo not drawn) [Compound J113863, J113863, reference compound] | – | – | – | IC50 ([7]; reference antagonist): 8.9 nM
21 | O=C(CSc1nnc2n(Cc3ccc(Cl)cc3)c3ccccc3n12)N1CCc2ccccc2C1 [Compound 19] | 9.5 ± 1.47 | 108.5 ^* % | 153.7 ± 1.1 | –
22 | B1 | – | – | – | EC50 [8]: 2.2 nM
23 | B2 | – | – | – | EC50 ([7]; reference agonist): 6.4 nM
